Data taken from patent publication US8163732B2, “Tricyclic heteroaryl compounds useful as inhibitors of Janus kinase” (Vertex Pharmaceuticals Incorporated, priority 2005, dated 2012).

Experiments:
JAK-2 = JAK-2 (Homo sapiens, UniProt O60674); experiment: JAK-2 inhibition assay; assay type: biochemical
JAK-3 = target: T1, JAK-3 (Homo sapiens, UniProt P52333); experiment: JAK-3 inhibition assay; assay type: biochemical
T1 sequence (P52333 1-1124): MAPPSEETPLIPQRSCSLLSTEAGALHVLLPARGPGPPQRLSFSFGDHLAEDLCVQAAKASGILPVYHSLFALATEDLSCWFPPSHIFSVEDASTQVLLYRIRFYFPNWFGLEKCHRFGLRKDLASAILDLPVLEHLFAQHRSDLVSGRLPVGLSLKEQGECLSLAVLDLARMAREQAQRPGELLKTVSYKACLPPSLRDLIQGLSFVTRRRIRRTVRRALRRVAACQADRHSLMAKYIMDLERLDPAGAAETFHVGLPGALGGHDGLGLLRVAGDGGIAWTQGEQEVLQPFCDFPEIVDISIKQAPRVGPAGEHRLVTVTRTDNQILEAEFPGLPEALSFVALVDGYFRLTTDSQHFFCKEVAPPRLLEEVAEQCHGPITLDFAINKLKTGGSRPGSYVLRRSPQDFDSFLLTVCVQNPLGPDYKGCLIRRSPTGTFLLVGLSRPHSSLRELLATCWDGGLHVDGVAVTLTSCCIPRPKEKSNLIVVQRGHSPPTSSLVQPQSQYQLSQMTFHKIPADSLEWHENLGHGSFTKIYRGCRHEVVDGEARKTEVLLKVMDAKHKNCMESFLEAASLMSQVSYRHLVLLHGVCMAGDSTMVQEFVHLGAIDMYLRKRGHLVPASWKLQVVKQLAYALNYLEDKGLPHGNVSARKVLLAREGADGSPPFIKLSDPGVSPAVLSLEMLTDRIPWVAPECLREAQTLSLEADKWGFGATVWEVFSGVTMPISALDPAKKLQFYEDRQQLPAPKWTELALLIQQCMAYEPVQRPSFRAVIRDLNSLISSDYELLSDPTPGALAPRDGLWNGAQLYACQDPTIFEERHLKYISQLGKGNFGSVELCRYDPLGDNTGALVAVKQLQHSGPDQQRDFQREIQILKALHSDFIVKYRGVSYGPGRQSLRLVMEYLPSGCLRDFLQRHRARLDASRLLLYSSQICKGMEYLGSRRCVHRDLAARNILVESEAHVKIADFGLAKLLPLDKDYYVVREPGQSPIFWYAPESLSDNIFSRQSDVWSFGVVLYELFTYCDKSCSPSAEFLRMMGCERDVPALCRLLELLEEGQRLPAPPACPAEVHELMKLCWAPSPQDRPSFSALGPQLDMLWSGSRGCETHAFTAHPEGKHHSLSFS
Experimental: Compounds were screened for their ability to inhibit JAK using the assay shown below. Reactions were carried out in a kinase buffer containing 100 mM HEPES (pH 7.4), 1 mM DTT, 10 mM MgCl2, 25 mM NaCl, and 0.01% BSA.
Substrate concentrations in the assay were 5 μM ATP (200 μCi/μmole ATP) and 1 μM poly(Glu)4Tyr. Reactions were carried out at 25° C. and 1 nM JAK-3.
To each well of a 96 well polycarbonate plate was added 1.5 μL of a candidate JAK-3 inhibitor along with 50 μL of kinase buffer containing 2 μM poly(Glu)4Tyr and 10 μM ATP. This was then mixed and 50 μL of kinase buffer containing 2 nM JAK-3 enzyme was added to start the reaction. After 20 minutes at room temperature (25° C.), the reaction was stopped with 50 μL of 20% trichloroacetic acid (TCA) that also contained 0.4 mM ATP. The entire contents of each well were then transferred to a 96 well glass fiber filter plate using a TomTek Cell Harvester. After washing, 60 μL of scintillation fluid was added and ^33P incorporation detected on a Perkin Elmer TopCount. After removing the mean background values for all of the data points, the data were fit using Prism software to obtain a Ki value (app).

Chain of JAK-2 (O60674 whole entry): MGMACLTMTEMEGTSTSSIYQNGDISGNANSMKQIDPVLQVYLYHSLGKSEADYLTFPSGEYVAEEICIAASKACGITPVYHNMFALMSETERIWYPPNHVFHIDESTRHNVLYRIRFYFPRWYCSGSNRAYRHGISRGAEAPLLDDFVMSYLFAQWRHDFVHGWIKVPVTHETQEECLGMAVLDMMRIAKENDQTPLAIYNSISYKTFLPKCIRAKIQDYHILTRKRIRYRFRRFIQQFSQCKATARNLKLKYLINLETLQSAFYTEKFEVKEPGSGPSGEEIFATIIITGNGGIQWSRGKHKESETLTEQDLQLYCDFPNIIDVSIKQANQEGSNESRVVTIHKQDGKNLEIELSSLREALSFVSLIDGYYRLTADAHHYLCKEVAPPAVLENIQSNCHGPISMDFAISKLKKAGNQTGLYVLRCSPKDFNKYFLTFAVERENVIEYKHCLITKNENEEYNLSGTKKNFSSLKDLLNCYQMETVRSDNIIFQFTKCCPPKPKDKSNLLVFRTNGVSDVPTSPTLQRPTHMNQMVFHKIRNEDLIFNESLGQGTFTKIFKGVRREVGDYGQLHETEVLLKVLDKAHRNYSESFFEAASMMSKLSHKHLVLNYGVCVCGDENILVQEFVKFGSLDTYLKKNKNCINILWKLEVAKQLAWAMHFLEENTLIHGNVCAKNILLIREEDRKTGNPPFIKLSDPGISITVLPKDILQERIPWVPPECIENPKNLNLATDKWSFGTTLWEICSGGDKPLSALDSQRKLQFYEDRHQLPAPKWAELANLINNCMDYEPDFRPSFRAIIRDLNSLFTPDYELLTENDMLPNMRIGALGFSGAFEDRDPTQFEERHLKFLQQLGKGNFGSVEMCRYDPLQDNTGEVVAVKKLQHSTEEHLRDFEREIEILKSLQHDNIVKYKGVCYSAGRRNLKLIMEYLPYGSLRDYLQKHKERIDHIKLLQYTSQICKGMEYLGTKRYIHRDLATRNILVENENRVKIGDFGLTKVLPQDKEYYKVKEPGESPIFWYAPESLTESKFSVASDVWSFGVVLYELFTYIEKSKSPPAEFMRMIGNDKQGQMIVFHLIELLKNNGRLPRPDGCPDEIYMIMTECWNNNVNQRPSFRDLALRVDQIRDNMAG

SMILES | Ki (JAK-2) [nM] | Ki (JAK-3) [nM]
Oc1ccccc1C1Nc2ccccc2-c2ccnc3[nH]cc1c23 (centres unmarked) [Compound 20] | 250 to 2500 | 250 to 2500
Brc1ccccc1C1Nc2ccccc2-c2ccnc3[nH]cc1c23 (centres unmarked) [Compound 21] | 250 to 2500 | 250 to 2500
c1ccc2c(c1)NC(c1ccc3c(c1)OCO3)c1c[nH]c3nccc-2c13 (centres unmarked) [Compound 22] | < 250 | 250 to 2500
O=C(O)C1Nc2ccccc2-c2ccnc3[nH]cc1c23 (centres unmarked) [Compound 23] | 250 to 2500 | 250 to 2500
Fc1cccc(C2Nc3ccccc3-c3ccnc4[nH]cc2c34)c1F (centres unmarked) [Compound 25] | < 250 | 250 to 2500
Fc1ccc(C2Nc3ccccc3-c3ccnc4[nH]cc2c34)c(F)c1 (centres unmarked) [Compound 26] | < 250 | 250 to 2500
Fc1ccc(F)c(C2Nc3ccccc3-c3ccnc4[nH]cc2c34)c1 (centres unmarked) [Compound 27] | < 250 | ≤ 250
Fc1cc(F)cc(C2Nc3ccccc3-c3ccnc4[nH]cc2c34)c1 (centres unmarked) [Compound 28] | 250 to 2500 | 250 to 2500
Fc1ccc(F)c(C2Nc3ccccc3-c3ccnc4[nH]cc2c34)c1F (centres unmarked) [Compound 30] | < 250 | ≤ 250
Fc1cc(F)c(C2Nc3ccccc3-c3ccnc4[nH]cc2c34)cc1F (centres unmarked) [Compound 31] | < 250 | 250 to 2500
Fc1ccc(C2Nc3ccccc3-c3ccnc4[nH]cc2c34)c(Cl)c1 (centres unmarked) [Compound 32] | 250 to 2500 | > 2500
Fc1cccc(Cl)c1C1Nc2ccccc2-c2ccnc3[nH]cc1c23 (centres unmarked) [Compound 33] | 250 to 2500 | 250 to 2500
Fc1cccc(C(F)(F)F)c1C1Nc2ccccc2-c2ccnc3[nH]cc1c23 (centres unmarked) [Compound 34] | 250 to 2500 | 250 to 2500
O=[N+]([O-])c1ccccc1C1Nc2ccccc2-c2ccnc3[nH]cc1c23 (centres unmarked) [Compound 35] | 250 to 2500 | 250 to 2500
Fc1ncccc1C1Nc2ccccc2-c2ccnc3[nH]cc1c23 (centres unmarked) [Compound 36] | 250 to 2500 | 250 to 2500
c1ccc(C2Nc3ccccc3-c3ccnc4[nH]cc2c34)nc1 (centres unmarked) [Compound 37] | > 2500 | > 2500
c1cncc(C2Nc3ccccc3-c3ccnc4[nH]cc2c34)c1 (centres unmarked) [Compound 38] | 250 to 2500 | 250 to 2500
Fc1cc(C2Nc3ccccc3-c3ccnc4[nH]cc2c34)ccc1Cl (centres unmarked) [Compound 39] | < 250 | 250 to 2500
Clc1cccc(C2Nc3ccccc3-c3ccnc4[nH]cc2c34)c1 (centres unmarked) [Compound 40] | 250 to 2500 | 250 to 2500
Clc1cccc(C2Nc3ccccc3-c3ccnc4[nH]cc2c34)c1Cl (centres unmarked) [Compound 41] | 250 to 2500 | > 2500

SMILES | Ki (JAK-2) [nM] | Ki (JAK-3) [nM]
Clc1cccc(Cl)c1C1Nc2ccccc2-c2ccnc3[nH]cc1c23 (centres unmarked) [Compound 42] | 250 to 2500 | 250 to 2500
c1ccc2c(c1)NC(c1ccncc1)c1c[nH]c3nccc-2c13 (centres unmarked) [Compound 43] | 250 to 2500 | > 2500
c1ccc2c(c1)N=C(c1ccncc1)c1c[nH]c3nccc-2c13 [Compound 44] | < 250 | 250 to 2500
COc1ccc(C2Nc3ccccc3-c3ccnc4[nH]cc2c34)cc1F (centres unmarked) [Compound 45] | < 250 | 250 to 2500
Oc1ccc(C2Nc3ccccc3-c3ccnc4[nH]cc2c34)c(Cl)c1 (centres unmarked) [Compound 46] | < 250 | ≤ 250
Fc1cccc(F)c1C1Nc2ncccc2-c2ccnc3[nH]cc1c23 (centres unmarked) [Compound 47] | 250 to 2500 | 250 to 2500
Fc1cccc(C2Nc3ncccc3-c3ccnc4[nH]cc2c34)c1 (centres unmarked) [Compound 48] | 250 to 2500 | 250 to 2500
Fc1cccc(F)c1C1Nc2ccccc2-c2ncnc3[nH]cc1c23 (centres unmarked) [Compound 49] | < 250 | 250 to 2500
Fc1cccc(C2Nc3ccccc3-c3ncnc4[nH]cc2c34)c1 (centres unmarked) [Compound 50] | 250 to 2500 | > 2500
CC1=Nc2ccccc2-c2ccnc3[nH]cc1c23 [Compound 51] | 250 to 2500 | 250 to 2500
Fc1cccc(F)c1C1Nc2ccccc2-c2c(Cl)cnc3[nH]cc1c23 (centres unmarked) [Compound 52] | 250 to 2500 | 250 to 2500
Oc1ccc(C2Nc3ccccc3-c3c(Cl)cnc4[nH]cc2c34)c(Cl)c1 (centres unmarked) [Compound 53] | < 250 | ≤ 250
Fc1ccc(F)c(C2Nc3ccccc3-c3c(Cl)cnc4[nH]cc2c34)c1F (centres unmarked) [Compound 54] | < 250 | 250 to 2500
Oc1ccc(C2Nc3ccccc3-c3ncnc4[nH]cc2c34)c(Cl)c1 (centres unmarked) [Compound 55] | < 250 | ≤ 250
Fc1ccc(F)c(C2Nc3ccccc3-c3ncnc4[nH]cc2c34)c1F (centres unmarked) [Compound 56] | < 250 | ≤ 250
Oc1ccc(C2Nc3ncccc3-c3ccnc4[nH]cc2c34)c(Cl)c1 (centres unmarked) [Compound 57] | < 250 | ≤ 250
OCCCCC1=Nc2ccccc2-c2ccnc3[nH]cc1c23 [Compound 58] | 250 to 2500 | 250 to 2500
OCCCC1Nc2ccccc2-c2ccnc3[nH]cc1c23 (centres unmarked) [Compound 60] | 250 to 2500 | > 2500
Oc1ccc([C@H]2Nc3ccccc3-c3ccnc4[nH]cc2c34)c(Cl)c1 [Compound 62] | < 250 | ≤ 250
Oc1ccc(C2=Nc3ccccc3-c3ccnc4[nH]cc2c34)c(Cl)c1 [Compound 63] | < 250 | ≤ 250

SMILES | Ki (JAK-2) [nM] | Ki (JAK-3) [nM]
COc1cc(C2Nc3ccccc3-c3ccnc4[nH]cc2c34)cc(O)c1O (centres unmarked) [Compound 64] | < 250 | ≤ 250
Oc1ccc(C2Nc3ccccc3-c3ccnc4[nH]cc2c34)cc1O (centres unmarked) [Compound 66] | < 250 | ≤ 250
Oc1c(Cl)cc(C2Nc3ccccc3-c3ccnc4[nH]cc2c34)cc1Cl (centres unmarked) [Compound 67] | < 250 | ≤ 250
COc1cc(C2Nc3ccccc3-c3ccnc4[nH]cc2c34)cc(F)c1O (centres unmarked) [Compound 68] | < 250 | ≤ 250
Oc1cccc(C2Nc3ccccc3-c3ccnc4[nH]cc2c34)c1O (centres unmarked) [Compound 69] | < 250 | ≤ 250
COc1ccc(C2Nc3ccccc3-c3ccnc4[nH]cc2c34)c(Cl)c1O (centres unmarked) [Compound 70] | < 250 | 250 to 2500
O=[N+]([O-])c1cc(O)ccc1C1Nc2ccccc2-c2ccnc3[nH]cc1c23 (centres unmarked) [Compound 71] | < 250 | ≤ 250
Oc1ccc(O)c(C2Nc3ccccc3-c3ccnc4[nH]cc2c34)c1 (centres unmarked) [Compound 72] | > 2500 | 250 to 2500
COc1cc(C2Nc3ccccc3-c3ccnc4[nH]cc2c34)ccc1O (centres unmarked) [Compound 73] | < 250 | ≤ 250
Oc1ccc(C2Nc3ccccc3-c3ccnc4[nH]cc2c34)cc1Cl (centres unmarked) [Compound 74] | < 250 | ≤ 250
Oc1ccc(C2Nc3ccccc3-c3ccnc4[nH]cc2c34)cc1I (centres unmarked) [Compound 75] | < 250 | ≤ 250
COc1cc(C2Nc3ccccc3-c3ccnc4[nH]cc2c34)c(Br)cc1O (centres unmarked) [Compound 76] | < 250 | ≤ 250
Oc1c(Br)cc(C2Nc3ccccc3-c3ccnc4[nH]cc2c34)cc1Br (centres unmarked) [Compound 78] | 250 to 2500 | 250 to 2500
Cc1cc(C2Nc3ccccc3-c3ccnc4[nH]cc2c34)cc(C)c1O (centres unmarked) [Compound 79] | 250 to 2500 | 250 to 2500
Oc1ncc(C2Nc3ccccc3-c3ccnc4[nH]cc2c34)c(O)n1 (centres unmarked) [Compound 80] | > 2500 | > 2500
Oc1ccc(C2Nc3ccccc3-c3ncnc4[nH]cc2c34)cc1Cl (centres unmarked) [Compound 81] | < 250 | ≤ 250
Oc1ccc(C2Nc3ccccc3-c3ncnc4[nH]cc2c34)cc1Br (centres unmarked) [Compound 82] | < 250 | ≤ 250
Cc1cc(C2Nc3ccccc3-c3ncnc4[nH]cc2c34)ccc1O (centres unmarked) [Compound 83] | < 250 | ≤ 250
